Test results reported in patent publication US10183032B2, “Methods for treating bacterial infection” (Ball State Innovation Corporation, priority 2012, dated 2019).
Like-named read-outs stand apart in the source and are kept apart here.

How the values were obtained:
Streptococcus pyogenes = Streptococcus pyogenes invasion assay in HUVEC, CFU recovery; format: cell-based; settings: for inhibition at 10 µM: Streptococcus pyogenes, HUVEC
Protocol: FIG. 12 is a graph illustrating that ML 141 inhibition of cell invasion by S. pyogenes is reversible. HUVEC were pretreated with ML 141 (10 μM) or with dimethyl sulfoxide (DMSO) as the vehicle control (1 h). Following pretreatment, ML 141-containing media was removed from the washout samples and replaced with DMSO-containing media for 60 min prior to incubation with Streptococcus pyogenes at a multiplicity of infection of 30 (2 h). Extracellular bacteria were removed by gentamicin, an antimicrobial with limited mammalian membrane permeability. Intracellular bacteria were released from HUVEC into the medium by incubation in cold water (5 min). Serial dilutions were incubated (16 h) on Todd Hewitt broth/blood agar plates and colonies enumerated to determine colony forming units (CFU)/ml (*P<0.05 by one-way ANOVA followed by Student-Newman-Keuls post-hoc analysis; n=4/treatment).
Human umbilical vein endothelial cells (HUVEC, EMD Millipore, Billerica, Mass., SCCE001) were cultured in EndoGRO-LS complete media (EMD Millipore, SCME001) and maintained in 75 cm^2 vented cap flasks (Thermo-Fisher Scientific, Pittsburgh, Pa., 10-126-37) at 37° C./5% CO2. Streptococcus pyogenes (90-226, M1+) was cultured in Todd Hewitt broth (THB, Thermo-Fisher Scientific, DF0492-17-6) and grown at 37° C. with no shaking.
Two days prior to infection, S. pyogenes were cultured in 5 ml THB 18-24 h from a single colony grown on THB/blood (Cleveland Scientific, Bath, Ohio, SBCIT-100) agar (Moorhead & Company, Rocklin, Calif., gelidium), and 10 μl subcultured 18 h prior to infection. HUVEC were seeded in 24-well plates (Sigma-Aldrich, St. Louis, Mo., CLS3524) that had been coated with Attachment Factor (Life Technologies, Carlsbad, Calif., S006100) for 30 min at 37° C./5% CO2. HUVEC were plated at a density of 1.5×10^5 cells/well. For infection, S. pyogenes were harvested by centrifugation, 37° C./3 min/10,000 RPM, washed, and resuspended in fresh 0.85% saline (NaCl, Thermo-Fisher Scientific, S-271-500). Bacteria were diluted to 4.8×10^8 colony forming units (CFU)/ml and incubated at 37° C./5% CO2 with HUVEC at multiplicity of infection and for duration indicated in each figure or table. CFU of 90-226 S. pyogenes had been determined from a growth curve, fitting an OD600 of 0.5 to 4.8×10^8 CFU/ml. After infection, each well was washed three times with sterile 1× phosphate buffered saline (PBS, Life Technologies, 20012043) to remove unattached S. pyogenes. HUVEC were then incubated at 37° C., 5% CO2 for 45 min in 10% fetal bovine serum (FBS, Atlanta Biologicals, Flowery Branch, Ga., S111S0)/PBS containing 500 μg/ml gentamicin (Sigma-Aldrich, G1272). Following the incubation with gentamicin to remove extracellular bacteria, HUVEC were washed three times with PBS. Sterile distilled ice-cold water (Life Technologies, 15230-162) was added to each well for 5 min at room temperature (RT) to permeabilize the host cells. Serial dilutions of this bacteria-containing water were performed in saline, plated on THB/blood agar, and incubated for 18-20 h at 37° C. The following day, colonies were counted to determine CFU/ml recovered from invasion.

Staphylococcus aureus = test: S. aureus invasion of monocytic cell line U937, flow cytometry; format: cell-based; settings: pretreatment 0.05 μM, 1 hour
Protocol: FIG. 1 illustrates ML 141 limits host cell invasion. The monocytic cell line U937 was pretreated with the vehicle control dimethyl sulfoxide (DMSO) or with ML 141 (0.05 μM, 1 h) followed by infection with Alexa Fluor 488-labeled S. aureus (1 hour). The % of 488^+ cells decreased with ML 141 treatment.
Specific pharmacologic inhibition of CDC42 has been examined to determine whether it is sufficient in the inhibition of host cell invasion by S. aureus. Host cell cytotoxicity was undetectable below 30 μM in vitro. The highest concentration of ML 141 introduced in vivo without detectable toxicity was 100 mg/kg body weight [BW]. The compound was dissolved in polyethylene glycol and administered as a single intraperitoneal injection to C57BL/6 mice.

COc1ccc(C2CC(c3ccccc3)=NN2c2ccc(S(N)(=O)=O)cc2)cc1 (centres unmarked) [ML 141, 4-[3-(4-methoxyphenyl)-5-phenyl-3,4-dihydropyrazol-2-yl]benzenesulfonamide]
reversibility of inhibition of S. pyogenes invasion (Streptococcus pyogenes; ML 141 10 μM 1 h, washout 60 min, MOI 30, 2 h): reversible | % Inhibition (± SEM) (Streptococcus pyogenes; ML 141 10 μM added 1 hour post-infection, 2 h, MOI 0.25): No difference | % Inhibition (± SEM) (Streptococcus pyogenes; ML 141 10 μM added at time of infection, 2 h, MOI 30): No difference | inhibition at 10 µM (Streptococcus pyogenes; 2 h, read-out: % Inhibition (± SEM), ML 141 10 μM added at time of infection, 2 h, MOI 0.25 (first line)): 81 ± 7% | inhibition at 10 µM (Streptococcus pyogenes; 2 h, read-out: % Inhibition (± SEM), ML 141 10 μM added at time of infection, 2 h, MOI 0.25 (second line)): 62 ± 10% | inhibition at 10 µM (Streptococcus pyogenes; read-out: % Inhibition (± SEM), ML 141 10 μM added 18-20 hours pre-infection, duration of infection 2 h, MOI 30): 96 ± 4% | inhibition at 10 µM (Streptococcus pyogenes; read-out: % Inhibition (± SEM), ML 141 10 μM added 1 hour post-infection, 2 h, MOI 0.0025): 92 ± 6% | invasion by S. aureus (% of 488+ cells) (Staphylococcus aureus): decreased invasion
